The values below come from article PMC4039107, “Spores of Clostridium engineered for clinical efficacy and safety cause regression and cure of tumors in vivo” (Oncotarget, 2014).

Holding throughout (type): biochemical
In one assay the target is T1, HsoNTR (Histophilus somni, UniProt A0A9Q6YZG6).
T1 construct: gene JFL49_05940
Kind of assay: HPLC CB1954 nitroreductase assay. From the text:
HPLC CB1954 nitroreductase assay on HsoNTR

In the next assay the target is T2, NmeNTR (Neisseria meningitidis, UniProt Q9K022).
T2 construct: gene NMB0804
As to the kind of experiment: HPLC CB1954 nitroreductase assay. From the text:
HPLC CB1954 nitroreductase assay on NmeNTR

Another assay deals with T3, NfnB (Escherichia coli, UniProt P38489).
T3 construct: gene nfsB; untagged as far as told; expressed from fdx promoter at pyrE locus of C. sporogenes strain E1; cell lysate
T3 sequence (P38489 1-217): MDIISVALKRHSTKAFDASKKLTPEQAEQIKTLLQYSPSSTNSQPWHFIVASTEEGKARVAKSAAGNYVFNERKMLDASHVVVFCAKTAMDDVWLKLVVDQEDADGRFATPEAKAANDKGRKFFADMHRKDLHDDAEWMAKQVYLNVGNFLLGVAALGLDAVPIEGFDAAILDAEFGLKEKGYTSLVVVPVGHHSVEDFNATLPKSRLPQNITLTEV
As to the kind of experiment: menadione reductase activity of C. sporogenes E1 lysate. The settings on record: background of endogenous quinone reductases in wild type and pyrE mutant controls.

The mark [1] stands for this setting: co-substrate CB1954, read-out: Km ^NADH.
[2] abbreviates: kcat is with NADH as co-substrate, read-out: Km ^CB1954.

Like-named read-outs stand apart in the source and are kept apart here.

T2 sequence (Q9K022 entry or part of it): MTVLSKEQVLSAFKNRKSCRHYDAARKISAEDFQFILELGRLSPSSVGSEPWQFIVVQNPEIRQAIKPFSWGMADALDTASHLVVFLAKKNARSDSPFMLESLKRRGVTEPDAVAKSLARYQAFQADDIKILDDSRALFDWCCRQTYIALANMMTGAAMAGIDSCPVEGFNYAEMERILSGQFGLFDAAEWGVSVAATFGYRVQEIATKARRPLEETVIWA
T1 sequence (A0A9Q6YZG6 entry or part of it): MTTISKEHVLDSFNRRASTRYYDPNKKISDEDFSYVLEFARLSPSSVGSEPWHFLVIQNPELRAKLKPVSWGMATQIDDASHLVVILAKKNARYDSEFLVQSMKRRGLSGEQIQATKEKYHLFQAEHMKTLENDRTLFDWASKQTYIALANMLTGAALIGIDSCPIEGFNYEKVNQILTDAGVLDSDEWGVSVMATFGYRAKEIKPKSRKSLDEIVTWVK

For the compound `NC(=O)C1=CN([C@@H]2O[C@H](COP(=O)(O)OP(=O)(O)OC[C@H]3O[C@@H](n4cnc5c(N)ncnc54)[C@H](O)[C@@H]3O)[C@@H](O)[C@H]2O)C=CC1` [NADH], the Km at HsoNTR (setting [1]) came to 644 µM; at NmeNTR (setting [1]), 188 µM. On to `NC(=O)c1cc(N2CC2)c([N+](=O)[O-])cc1[N+](=O)[O-]` [CB1954, 5-(aziridin-1-yl)-2,4-dinitrobenzamide], for which the Km on HsoNTR (setting [2]) is 22 µM; at NmeNTR (setting [2]), 2.47 µM. For the compound `CC1=CC(=O)c2ccccc2C1=O` [menadione], the “specific menadione reductase activity” value at NfnB is “both E1 and N1 contained menadione reductase activity elevated significantly above the endogenous levels”.

Broadly, the Km is the concentration of substrate that gives half-maximal velocity.
